Test results published in PubChem BioAssay AID2060602 (Molecular Pharmacology Branch, DTP, NCI, 2025).

Test system: 648629-189-R-J1-PDC complex spheroids viability
Test: Anticancer human tumor 648629-189-R-J1-PDC patient-derived bladder carcinoma cell line growth inhibition [CLK]
Details: for IC50: curve of first compound; for viability, T/C: stronger effect = lower value
Description: A high-throughput screen of multi-cell type tumor spheroids was designed to identify active combinations of […] and targeted small molecules. Complex spheroids include a stromal component modeled by human endothelial cells (HUVEC) and fibroblasts modeled by human mesenchymal stem cells (MSCs). The concentration ranges selected for each drug and investigational agent were based upon clinically achievable concentrations if the clinical Cmax of the agent was known.
Compounds. The drugs and investigational agents: cirtuvivint (SM08502; NSC835563), CC-671 (NSC850746), vemurafenib (NSC761431), tapotoclax (NSC804041), sotorasib (NSC818433), adagrasib (NSC831453), MRTX-1133 (NSC836407), BAY2416964 (NSC825713), copanlisib (NSC816437), inavolisib (NSC800729), abemaciclib (NSC768073), osimertinib (NSC779217), entinostat (NSC756642), eltanexor (KPT-8602, NSC794443), venetoclax (NSC766270), ceralasertib (NSC777638), bortezomib (NSC756655), olaparib (NSC753686), talazoparib (NSC767125), alisertib (NSC759677), peposertib (NSC802822), gemcitabine (NSC613327), 5-fluorouracil (NSC19893), SN-38 (NSC673596), oxaliplatin (NSC266046), paclitaxel (NSC125973), and doxorubicin (NSC123127), were obtained from the National Cancer Institute (NCI) Developmental Therapeutics Program Chemical Repository. The FDA-approved anticancer drug set is available from the Developmental Therapeutics Program at https://dtp.cancer.gov/organization/dscb/obtaining/available plates.htm. […] The stock solutions were prepared in dimethyl sulfoxide (DMSO, Sigma-Aldrich, St. Louis, MO, cat. D2650), except for the platinum complexes which were prepared in saline (Quality Biological, Gaithersburg, MD, cat. 114-055-101), at 800-fold the tested concentration and stored at -70 degrees C prior to their use. All drugs and investigational agents were tested over a range starting from a high concentration at or near the clinical Cmax and decreasing in half-log increments. If the clinical Cmax for an agent had not been determined, the highest concentration tested was 10 microM.
Cell Culture. All cells were maintained in an incubator at 37 degrees C and 5% CO2 with 95% humidity. The PDC lines were cultured according to standard operating procedures established by the NCI PDMR. Briefly, all PDCs were thawed and cultured in Matrigel-coated flasks prepared with a working solution of 1X Ham's F-12 nutrient mix, without supplementation (Invitrogen, Waltham, MA, cat. 11765054), 100 U/mL penicillin-streptomycin (Invitrogen, cat. 15140122), and 2.5% Matrigel (Corning Inc., Corning, NY, cat. 354248) for the first three passages. The 947758-054-R-J2-PDC line was cultured in 6B/Colon 1A media, which includes advanced DMEM/F-12 (Thermo Fisher Scientific, cat. 12634028), 10 mM HEPES (Thermo Fisher Scientific, cat. 15630080), 1X GlutaMAX supplement (Thermo Fisher Scientific, cat. 35050061), 0.1 mg/mL primocin (InvivoGen, cat. ant-pm-2), 10% defined fetal bovine serum, heat inactivated (HyClone Laboratories Inc., cat. SH30070.03HI), 1.25 mM N-Acetyl-L-cysteine (Sigma-Aldrich, cat. A9165), 10 mM nicotinamide (Sigma-Aldrich, cat. N0636), 1X B-27 supplement (Thermo Fisher Scientific, cat. 17504044), 1X N-2 supplement (Thermo Fisher Scientific, cat. 17502048), and 10 microM Y-27632 dihydrochloride (Tocris Bioscience, cat. 1254). The 876862-298-R-J1-PDC was cultured in 6E media, which includes all 6B/Colon 1A media components plus 50% L-WRN conditioned media (ATCC, cat. CRL-3276), 50 ng/mL recombinant human EGF recombinant protein (hEGF; Thermo Fisher Scientific, cat. PHG0311), 10 ng/mL recombinant human fibroblast growth factor 10 (hGFG-10; PeproTech, cat. 100-26), 1 ng/mL recombinant human fibroblast growth factor 2 (hFGF-2; PeproTech, cat. 100-18B), and 1 µM prostaglandin E2 (PGE2; Tocris, cat. 2296). The 227483-062-R1-J1-PDC line was cultured in Panc media, containing all 6E components except hFGF-2, with the addition of 500 nM SB-431542 (Selleckchem, cat. S1067) and 10 nM gastrin (Tocris, cat. 3006). […]

[1] = second compound 0.0316 µM, first compound 0.0316 µM
[2] = second compound 0.0316 µM, first compound 0.1 µM
[3] = second compound 0.0316 µM, first compound 0.316 µM
[4] = second compound 0.0316 µM, first compound 1 µM
[5] = second compound 0.1 µM, first compound 0.0316 µM
[6] = second compound 0.1 µM, first compound 0.1 µM
[7] = second compound 0.1 µM, first compound 0.316 µM
[8] = second compound 0.1 µM, first compound 1 µM
[9] = second compound 0.316 µM, first compound 0.0316 µM
[10] = second compound 0.316 µM, first compound 0.1 µM
[11] = second compound 0.316 µM, first compound 0.316 µM
[12] = second compound 0.316 µM, first compound 1 µM
[13] = second compound 1 µM, first compound 0.0316 µM
[14] = second compound 1 µM, first compound 0.1 µM
[15] = second compound 1 µM, first compound 0.316 µM
[16] = second compound 1 µM, first compound 1 µM
[17] = second compound 3.16 µM, first compound 0.0316 µM
[18] = second compound 3.16 µM, first compound 0.1 µM
[19] = second compound 3.16 µM, first compound 0.316 µM
[20] = second compound 3.16 µM, first compound 1 µM
[21] = second compound 10 µM, first compound 0.0316 µM
[22] = second compound 10 µM, first compound 0.1 µM
[23] = second compound 10 µM, first compound 0.316 µM
[24] = second compound 10 µM, first compound 1 µM
[25] = second compound 0.0316 µM, first compound 0.00316 µM
[26] = second compound 0.0316 µM, first compound 0.01 µM
[27] = second compound 0.1 µM, first compound 0.00316 µM
[28] = second compound 0.1 µM, first compound 0.01 µM
[29] = second compound 0.316 µM, first compound 0.00316 µM
[30] = second compound 0.316 µM, first compound 0.01 µM
[31] = second compound 1 µM, first compound 0.00316 µM
[32] = second compound 1 µM, first compound 0.01 µM
[33] = second compound 3.16 µM, first compound 0.00316 µM
[34] = second compound 3.16 µM, first compound 0.01 µM
[35] = second compound 10 µM, first compound 0.00316 µM
[36] = second compound 10 µM, first compound 0.01 µM
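Wherever viability, T/C is given: drug exposure lasted seven days before viability readout; 100% = DMSO vehicle control wells.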

CC(Nc1ccc2c(c1)OCCn1cc(N3C(=O)OCC3C(F)F)nc1-2)C(N)=O (stereo unspecified) + CN1CCN(c2cc(C(=O)Nc3cc4cc(-c5cnn(C)c5)ccc4cn3)ccn2)CC1
IC50 (second compound 0.0316 µM): 8560 nM | IC50 (second compound 0.1 µM): 8740 nM | IC50 (second compound 0.316 µM): < 31.6 nM | IC50 (second compound 1 µM): < 31.6 nM | IC50 (second compound 3.16 µM): < 31.6 nM | IC50 (second compound 10 µM): < 31.6 nM | viability, T/C [1]: 114% | viability, T/C [2]: 111% | viability, T/C [3]: 97.6% | viability, T/C [4]: 84.2% | viability, T/C (second compound 0.0316 µM, first compound 3.16 µM): 77.2% | viability, T/C (second compound 0.0316 µM, first compound 10 µM): 44.8% | viability, T/C [5]: 105% | viability, T/C [6]: 100% | viability, T/C [7]: 90.2% | viability, T/C [8]: 82.8% | viability, T/C (second compound 0.1 µM, first compound 3.16 µM): 68.8% | viability, T/C (second compound 0.1 µM, first compound 10 µM): 46.8% | viability, T/C [9]: 44.5% | viability, T/C [10]: 44.2% | viability, T/C [11]: 42.5% | viability, T/C [12]: 38.4% | viability, T/C (second compound 0.316 µM, first compound 3.16 µM): 30.9% | viability, T/C (second compound 0.316 µM, first compound 10 µM): 28.1% | viability, T/C [13]: 0.75% | viability, T/C [14]: 0.85% | viability, T/C [15]: 0.93% | viability, T/C [16]: 1.18% | viability, T/C (second compound 1 µM, first compound 3.16 µM): 0.5% | viability, T/C (second compound 1 µM, first compound 10 µM): 0.59% | viability, T/C [17]: 0.08% | viability, T/C [18]: 0.14% | viability, T/C [19]: 0.16% | viability, T/C [20]: 0.13% | viability, T/C (second compound 3.16 µM, first compound 3.16 µM): 1.1% | viability, T/C (second compound 3.16 µM, first compound 10 µM): 0.14% | viability, T/C [21]: 0.1% | viability, T/C [22]: 0.13% | viability, T/C [23]: 0.17% | viability, T/C [24]: 0.22% | viability, T/C (second compound 10 µM, first compound 3.16 µM): 0.22% | viability, T/C (second compound 10 µM, first compound 10 µM): 0.2%

CCN1CCN(Cc2ccc(Nc3ncc(F)c(-c4cc(F)c5nc(C)n(C(C)C)c5c4)n3)nc2)CC1 + CN1CCN(c2cc(C(=O)Nc3cc4cc(-c5cnn(C)c5)ccc4cn3)ccn2)CC1
IC50 (second compound 0.0316 µM): > 1000 nM | IC50 (second compound 0.1 µM): > 1000 nM | IC50 (second compound 0.316 µM): < 3.16 nM | IC50 (second compound 1 µM): < 3.16 nM | IC50 (second compound 3.16 µM): < 3.16 nM | IC50 (second compound 10 µM): < 3.16 nM | viability, T/C [25]: 108% | viability, T/C [26]: 101% | viability, T/C [1]: 101% | viability, T/C [2]: 127% | viability, T/C [3]: 122% | viability, T/C [4]: 123% | viability, T/C [27]: 104% | viability, T/C [28]: 104% | viability, T/C [5]: 102% | viability, T/C [6]: 101% | viability, T/C [7]: 108% | viability, T/C [8]: 101% | viability, T/C [29]: 37% | viability, T/C [30]: 48.5% | viability, T/C [9]: 41.7% | viability, T/C [10]: 50.6% | viability, T/C [11]: 47.3% | viability, T/C [12]: 40.4% | viability, T/C [31]: 0.42% | viability, T/C [32]: 0.24% | viability, T/C [13]: 0.61% | viability, T/C [14]: 0.35% | viability, T/C [15]: 0.54% | viability, T/C [16]: 0.32% | viability, T/C [33]: 0.14% | viability, T/C [34]: 0.26% | viability, T/C [17]: 0.49% | viability, T/C [18]: 0.15% | viability, T/C [19]: 0.16% | viability, T/C [20]: 0.16% | viability, T/C [35]: 0.21% | viability, T/C [36]: 0.21% | viability, T/C [21]: 0.17% | viability, T/C [22]: 0.16% | viability, T/C [23]: 1.22% | viability, T/C [24]: 1.51%

COc1c(OCCCN2CCOCC2)ccc2c3n(c(=NC(=O)c4cnc(N)nc4)nc12)CCN3 + CN1CCN(c2cc(C(=O)Nc3cc4cc(-c5cnn(C)c5)ccc4cn3)ccn2)CC1
IC50 (second compound 0.0316 µM): 91.3 nM | IC50 (second compound 0.1 µM): 73.3 nM | IC50 (second compound 0.316 µM): < 3.16 nM | IC50 (second compound 1 µM): < 3.16 nM | IC50 (second compound 3.16 µM): < 3.16 nM | IC50 (second compound 10 µM): < 3.16 nM | viability, T/C [25]: 114% | viability, T/C [26]: 102% | viability, T/C [1]: 88.8% | viability, T/C [2]: 46.6% | viability, T/C [3]: 18.3% | viability, T/C [4]: 12.1% | viability, T/C [27]: 118% | viability, T/C [28]: 101% | viability, T/C [5]: 72.4% | viability, T/C [6]: 43% | viability, T/C [7]: 18.3% | viability, T/C [8]: 10.7% | viability, T/C [29]: 45.6% | viability, T/C [30]: 43.8% | viability, T/C [9]: 37.4% | viability, T/C [10]: 22.5% | viability, T/C [11]: 11% | viability, T/C [12]: 5.26% | viability, T/C [31]: 1.95% | viability, T/C [32]: 0.55% | viability, T/C [13]: 0.91% | viability, T/C [14]: 0.76% | viability, T/C [15]: 0.14% | viability, T/C [16]: 0.11% | viability, T/C [33]: 0.14% | viability, T/C [34]: 0.49% | viability, T/C [17]: 0.15% | viability, T/C [18]: 0.11% | viability, T/C [19]: 0.11% | viability, T/C [20]: 0.58% | viability, T/C [35]: 0.07% | viability, T/C [36]: 0.14% | viability, T/C [21]: 0.42% | viability, T/C [22]: 0.17% | viability, T/C [23]: 1.19% | viability, T/C [24]: 1.16%
